Assay results taken from patent publication US12622863B2, “Injectable composition and use of said composition” (INNATE S.R.L., priority 2020, dated 2026).

Tested on: hyaluronidase
Assay: degradation of hyaluronic acid by standard hyaluronidase
Assay type: biochemical
Text: In the composition, the nicotinamide is not only a functional excipient adapted to protect the hyaluronic acid by virtue of its antioxidant action, but also acts against the action of the hyaluronidase, allowing the viscosupplementation features to be maintained over time. Experimental tests have shown that in a composition without nicotinamide, the hyaluronic acid is degraded by a 50% standard hyaluronidase after one hour; on the contrary, with a presence of nicotinamide in the percentages described above, the hyaluronic acid degrades by only 20% after one hour, while the normal products on the market degrade by 70%.

inhibitory effect on hyaluronidase: inhibitory effect on hyaluronidase
Structure (SMILES): NC(=O)c1cccnc1 [nicotinamide]
